“Also recorded” adds a separate entry of the source. Read-outs that look alike come from different tables or passages of the source.
Tests used:
[1] = Water solubility of MJK compounds; assay type: physicochemical
From the text: Solubility of MJK compounds: The development of an oral formulation for patients with auto-immune diseases, including Crohn's Disease, is preferential and less expensive, avoiding the need of hospitalization in comparison to the intracolonic (enema) administration. Thus, the water solubility and physical properties of the MJK compounds were examined. […] MJK-008 is the highest soluble MJK compound.

HDAC4 = molecular target: T1, HDAC4 (Homo sapiens, UniProt P56524); experiment: Fluorogenic HDAC4 activity assay; assay type: biochemical; settings: fluorogenic assay kit, in words
T1 construct: purchased BPS Bioscience 50064
T1 sequence (P56524 whole entry): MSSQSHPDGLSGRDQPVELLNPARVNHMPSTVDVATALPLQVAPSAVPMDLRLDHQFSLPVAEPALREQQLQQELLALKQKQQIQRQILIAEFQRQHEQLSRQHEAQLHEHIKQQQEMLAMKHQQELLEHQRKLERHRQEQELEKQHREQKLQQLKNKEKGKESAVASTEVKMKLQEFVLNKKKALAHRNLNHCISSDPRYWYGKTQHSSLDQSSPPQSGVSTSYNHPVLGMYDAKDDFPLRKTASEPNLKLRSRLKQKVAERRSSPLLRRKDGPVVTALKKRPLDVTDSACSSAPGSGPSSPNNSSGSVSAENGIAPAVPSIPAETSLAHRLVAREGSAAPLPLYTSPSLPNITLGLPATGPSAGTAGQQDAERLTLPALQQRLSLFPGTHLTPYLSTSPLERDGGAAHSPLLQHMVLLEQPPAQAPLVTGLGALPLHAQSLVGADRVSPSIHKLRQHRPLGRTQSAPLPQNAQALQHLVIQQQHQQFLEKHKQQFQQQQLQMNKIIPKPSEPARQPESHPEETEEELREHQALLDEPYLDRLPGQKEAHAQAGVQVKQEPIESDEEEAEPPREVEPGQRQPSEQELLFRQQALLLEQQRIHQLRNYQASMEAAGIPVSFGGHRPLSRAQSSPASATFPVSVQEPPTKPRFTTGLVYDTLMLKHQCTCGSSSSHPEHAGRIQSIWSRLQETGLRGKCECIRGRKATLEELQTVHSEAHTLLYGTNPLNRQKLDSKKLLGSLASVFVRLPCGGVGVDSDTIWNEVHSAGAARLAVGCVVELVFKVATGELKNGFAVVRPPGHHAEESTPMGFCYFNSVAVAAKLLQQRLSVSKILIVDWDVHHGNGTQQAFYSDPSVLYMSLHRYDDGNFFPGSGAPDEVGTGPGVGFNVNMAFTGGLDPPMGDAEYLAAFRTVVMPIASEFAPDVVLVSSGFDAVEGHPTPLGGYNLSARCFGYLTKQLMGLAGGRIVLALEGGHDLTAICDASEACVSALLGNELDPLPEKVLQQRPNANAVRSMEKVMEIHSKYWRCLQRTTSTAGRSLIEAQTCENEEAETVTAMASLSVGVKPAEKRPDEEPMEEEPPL
Protocol: (§1) To measure the effects of MJK-001, -004, -006 and -008 on HDAC4 & 9 activity fluorogenic HDAC9 (#50069) and HDAC4 (#50064) assay kits (BPS Bioscience) were used. Briefly, these assays consist of two steps; in the first one the HDAC fluorometric substrate containing an acetylated lysine side chain is incubated with purified HDAC9. In the second step, the deacetylation sensitizes the substrate so subsequent treatment with the lysine developer produces a fluorophore that was measured by a fluorescence reader.

HDAC9 = molecular target: T2, HDAC9 (Homo sapiens, UniProt Q9UKV0); experiment: Fluorogenic HDAC9 activity assay; assay type: biochemical; settings: fluorogenic assay kit, in words
T2 construct: purchased BPS Bioscience 50069
T2 sequence (Q9UKV0 whole entry): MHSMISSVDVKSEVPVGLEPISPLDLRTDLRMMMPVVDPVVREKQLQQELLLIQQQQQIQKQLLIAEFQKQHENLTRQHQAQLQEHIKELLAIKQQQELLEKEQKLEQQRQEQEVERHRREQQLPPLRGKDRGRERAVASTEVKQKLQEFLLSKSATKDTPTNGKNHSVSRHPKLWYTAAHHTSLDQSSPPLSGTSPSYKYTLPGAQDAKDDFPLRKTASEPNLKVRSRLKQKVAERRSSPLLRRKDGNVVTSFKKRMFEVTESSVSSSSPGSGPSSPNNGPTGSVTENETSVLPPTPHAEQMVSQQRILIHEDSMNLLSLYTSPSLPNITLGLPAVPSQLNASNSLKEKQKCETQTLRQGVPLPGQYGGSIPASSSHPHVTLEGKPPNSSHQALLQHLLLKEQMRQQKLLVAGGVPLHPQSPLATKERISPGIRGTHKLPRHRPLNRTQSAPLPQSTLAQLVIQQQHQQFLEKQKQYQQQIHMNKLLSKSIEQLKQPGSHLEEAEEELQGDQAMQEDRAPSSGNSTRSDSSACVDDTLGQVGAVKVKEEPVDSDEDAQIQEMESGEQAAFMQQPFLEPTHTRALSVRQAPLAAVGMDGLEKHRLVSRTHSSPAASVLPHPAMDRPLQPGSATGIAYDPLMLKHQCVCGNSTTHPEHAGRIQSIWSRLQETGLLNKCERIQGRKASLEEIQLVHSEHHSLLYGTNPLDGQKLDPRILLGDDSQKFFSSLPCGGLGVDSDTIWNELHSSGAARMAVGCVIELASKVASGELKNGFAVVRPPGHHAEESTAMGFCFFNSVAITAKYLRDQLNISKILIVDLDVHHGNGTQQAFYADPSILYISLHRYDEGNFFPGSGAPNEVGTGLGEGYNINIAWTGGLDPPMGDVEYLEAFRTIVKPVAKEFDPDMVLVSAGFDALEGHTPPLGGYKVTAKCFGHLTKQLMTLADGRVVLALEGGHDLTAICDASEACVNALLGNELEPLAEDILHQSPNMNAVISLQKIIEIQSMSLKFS
Protocol: as §1

[2] = test system: RT-112 bladder cancer cells; experiment: Cell viability assay (CellTiter Glo), RT-112; assay type: cell-based
Protocol: (§2) Pancreatic cancer cell lines (MIA PaCa-2 and CAPAN-2) were purchased from ATCC. MIA PaCa-2 were grown in DMEM and CAPAN-2 in McCoy's 5A (Gibco). Colon cancer cell lines (SW480 and HT-29) were purchased from ATCC. SW480 were grown in Leibovitz's L-15 (ATCC) and HT-29 in McCoy's 5A (Gibco). Lung cancer cell lines (NCI 460 and NCI 1975) were purchased from ATCC and grown in RPMI 1640 (Gibco). PC-3 prostate cancer cell line was purchased from ATCC and grown in F-12K (ATCC). Bladder cancer cell line 5637 was purchased from ATCC and RT-112 was purchased from Sigma-Aldrich and was grown in RPMI 1640 (Gibco). Bladder cancer cell lines, UMUC-9, UMUC-15 and UMUC-7 were purchased from MD Anderson and were grown in EMEM (ATCC). Bladder cancer cell line J82 was purchased from ATCC and was grown in EMEM (ATCC). SW1710 and EJ28 bladder cancer cell lines were purchased from DSMZ and were grown in DMEM (ATCC) and RPMI-1640 (Gibco), respectively. Bladder cancer cell line T24 was purchased from ATCC and grown in McCoy's 5A (Gibco). Bladder cancer cell line BC-3C was purchased from DSMZ and was grown in McCoy's 5A (Gibco). All media were supplemented with 10% FBS (Gemini Bioproducts) and 1% Antibiotic-Antimycotic (Gibco). In the case of MIA PaCa-2, medium was also supplemented with 2.5% horse serum (Gibco). NCM356 colon epithelial cell lines were growth in M3:10 (INCELL, San Antonio, Tex.). A CMV-driven-HDAC9 vector was used to overexpress HDAC9 levels in NCM356 cells. IL1B and TNFA mRNA levels were measured by qPCR analysis as described previously (Fang K et al. Am J Pathol, 188(3):586-99, 2018).
(§3) 1.8×10^3 cells/well were plated in quadruplicates in 96-well plate and treated with exogenously added MJK analogues 6 hours after plating. For the experiments performed to calculate the IC50s of HDAC9 analogues, a secondary treatment of exogenously added MJK analogues was performed 2 days later. Cell growth was assessed 1, 3, 5 or 7 days after plating using the CellTiter Glo Luminescence Cell Viability Assay (Promega) according to manufacturer's protocol. For the experiments where the effect of combinatorial treatment of MJK-004 analogues with chemotherapy was assessed, treatment of cells with gemcitabine (10 nM) or 5-fluouracil (2000 nM) was performed one day after MJK-004 treatment and the cells were further treated with exogenously added MJK analogues 2 days later. Cell growth was assessed 3, 4, 5 or 6 days after plating using the CellTiter Glo Luminescence Cell Viability Assay (Promega) according to manufacturer's protocol. Data are expressed as mean […] (arbitrary units)±S.D.
(§4) Cell Viability Assays were employed to determine the concentration of MJK analogues where the response is reduced by half. For each treatment of cancer cells, 1, 2, 5, 10 and 20 μM of MJK analogues were applied. GraphPad Prism 7 software was used to fit dose response curves. Relative Luciferase Activity Units were plotted against the log values of the doses used and the nonlinear regression model was used for data analysis.
MJK-001 effects on a cancer cell line panel: The effects of MJK-001 (20 uM) on cancer cell growth was evaluated in 9 cancer cell lines, consisting of bladder, colon, lung, prostate and pancreatic cancer cell lines. Cell growth was measured on day 5. Bladder cancer cell lines (RT-112, 5637) were more responsive to MJK-001 treatment, followed by the colon and pancreatic cancer cell lines shown in Table 3.

[3] = test system: 5637 bladder cancer cell line; experiment: Cell viability assay (CellTiter Glo), 5637; assay type: cell-based; settings: for IC50: 5637 cell growth
Protocol: as §2, with “All media were supplemented with 10% FBS (Gemini Bioproducts) and 1% Antibiotic-Antimycotic (Gibco). In the case of MIA PaCa-2, medium was also supplemented with 2.5% horse serum (Gibco). NCM356 colon epithelial cell lines were growth in M3:10 (INCELL, San Antonio, Tex.). A CMV-driven-HDAC9 vector was used to overexpress HDAC9 levels in NCM356 cells.” left out
as §3, with “For the experiments performed to calculate the IC50s of HDAC9 analogues, a secondary treatment of exogenously added MJK analogues was performed 2 days later.” left out, “units)±S.D. […]” for “units)±S.D.”

[4] = test system: UMUC9 bladder cancer cells; experiment: Cell viability assay (CellTiter Glo), UMUC9; assay type: cell-based; settings: for IC50: UM-UC-9
Protocol: as §2, §3, §4

[5] = test system: BC3C bladder cancer cell line; experiment: Cell viability assay (CellTiter Glo), BC3C; assay type: cell-based; settings: BC3C cell growth
Protocol: (§5) Pancreatic cancer cell lines (MIA PaCa-2 and CAPAN-2) were purchased from ATCC. MIA PaCa-2 were grown in DMEM and CAPAN-2 in McCoy's 5A (Gibco). Colon cancer cell lines (SW480 and HT-29) were purchased from ATCC. SW480 were grown in Leibovitz's L-15 (ATCC) and HT-29 in McCoy's 5A (Gibco). Lung cancer cell lines (NCI 460 and NCI 1975) were purchased from ATCC and grown in RPMI 1640 (Gibco). PC-3 prostate cancer cell line was purchased from ATCC and grown in F-12K (ATCC). Bladder cancer cell line 5637 was purchased from ATCC and RT-112 was purchased from Sigma-Aldrich and was grown in RPMI 1640 (Gibco). […] IL1B and TNFA mRNA levels were measured by qPCR analysis as described previously (Fang K et al. Am J Pathol, 188(3):586-99, 2018).
(§6) 1.8×10^3 cells/well were plated in quadruplicates in 96-well plate and treated with exogenously added MJK analogues 6 hours after plating. […] Cell growth was assessed 1, 3, 5 or 7 days after plating using the CellTiter Glo Luminescence Cell Viability Assay (Promega) according to manufacturer's protocol. For the experiments where the effect of combinatorial treatment of MJK-004 analogues with chemotherapy was assessed, treatment of cells with gemcitabine (10 nM) or 5-fluouracil (2000 nM) was performed one day after MJK-004 treatment and the cells were further treated with exogenously added MJK analogues 2 days later. […]

[6] = test system: EJ28 bladder cancer cell line; experiment: Cell viability assay (CellTiter Glo), EJ28; assay type: cell-based; settings: Homo sapiens, EJ-28; EJ28 cell growth
Protocol: as §5, §6

bladder cancer cells = experiment: Bladder cancer cell growth, overall finding; assay type: cell-based; settings: in words
Protocol: as §3, §4
MJK-004 efficacy on bladder cancer cell growth and colony-formation ability: Based on the above findings, the MJK compounds were examined to determine if they had substantially better efficacy than MJK-001 to suppress bladder cancer cell growth by calculating the IC50 values.
The synthesized series of MJK chemical compounds have increased specificity for HDAC9 or HDAC4 isoforms. […] On the other hand, MJK-004 is highly efficient in blocking bladder cancer cell growth through regulation of HDAC4 isoform. MJK-006 and MJK-008 compounds have the potential to be developed as therapeutics for Crohn's Disease and other auto-immune diseases. […]

[7] = test system: PC-3 prostate cancer cell line; experiment: Cell viability assay (CellTiter Glo), PC-3; assay type: cell-based; settings: 120 h; PC-3, 20 uM, day 5; read-out: % growth inhibition
Protocol: as §5, §6

[8] = test system: IL1B and TNFA mRNA levels in HDAC9-overexpressing NCM356 cells; experiment: IL1B and TNFA mRNA (qPCR) in HDAC9-overexpressing NCM356 colonocytes; assay type: cell-based
[9] = Homo sapiens, RT-112 cell growth

Structure (SMILES) | HDAC4 activity / specificity (HDAC4) | HDAC9 activity / specificity (HDAC9) | IC50 [2, 9] | IC50 [3] | IC50 ([4]; UMUC9 cell growth) | IC50 [5] | IC50 [6] | effect on bladder cancer cell growth (bladder cancer cells) | also measured
Cn1c(/C=C/C(=O)NO)ccc1/C=C/C(=O)c1cccnc1 [MJK006, (E)-N-hydroxy-3-(1-methyl-5-((E)-3-oxo-3-(pyridin-3-yl)prop-1-en-1-yl)-1H-pyrrol-2-yl)acrylamide] | decreased HDAC4 specificity | high specificity for the HDAC9 isoform; also recorded: significantly increased specificity of targeting the HDAC9 isoform | 38.3 µM | 1740 µM | 19.8 µM | 36.4 µM | 352 µM | did not have any effect | Solubility score [1]: worst solubility
Cn1c(/C=C/C(=O)NO)ccc1/C=C/C(=O)c1cccs1 [MJK004, (E)-N-hydroxy-3-(1-methyl-5-((E)-3-oxo-3-(thiophen-2-yl)prop-1-en-1-yl)-1H-pyrrol-2-yl)acrylamide] | high specificity for HDAC4 | very low activity against HDAC9 | 2.37 µM | 7.58 µM | 3.97 µM | 5.85 µM | 6.62 µM | highest efficacy | cell growth, monotherapy ([2]; RT-112, days 4 & 5): suppressed bladder cancer growth in both cell lines as a monotherapy; cell growth, combination with gemcitabine ([2]; RT-112, gemcitabine 10 nM, days 4 & 5): increased gemcitabine's efficacy; cell growth, monotherapy ([4]; UMUC9, days 4 & 5): suppressed bladder cancer growth in both cell lines as a monotherapy; cell growth, combination with gemcitabine ([4]; UMUC9, gemcitabine 10 nM, days 4 & 5): increased gemcitabine's efficacy
Cn1c(/C=C/C(=O)NO)ccc1/C=C/C(=O)c1cccc(F)c1 [MJK001, (E)-3-(5-((E)-3-(3-Fluorophenyl)-3-oxoprop-1-en-1-yl)-1-methyl-1H-pyrrol-2-yl)-N-hydro-xyacrylamide] | partially blocks | partially blocks | 9.15 µM | – | 7.1 µM | – | – | – | inhibition at 20 µM ([2]; Homo sapiens, RT-112, 120 h, RT112, 20 uM, day 5, read-out: % growth inhibition): 51%; inhibition at 20 µM ([3]; 120 h, 5637, 20 uM, day 5, read-out: % growth inhibition): 42.1%; inhibition at 20 µM [7]: 26.8%
Cl.Cn1c(/C=C/C(=O)NO)ccc1/C=C/C(=O)c1cccnc1 [MJK008, (E)-N-Hydroxy-3-(1-methyl-5-((E)-3-oxo-3-(pyridin-3-yl)prop-1-en-1-yl)-1H-pyrrol-2-yl)ac-rylamide hydrochloride] | decreased HDAC4 specificity | – | – | – | – | – | – | did not have any effect | Solubility score ([1]; hydrochloride): highest solubility; HDAC9 activity / specificity (HDAC9; hydrochloride): high specificity for the HDAC9 isoform; also recorded: significantly increased specificity of targeting the HDAC9 isoform; IL1B and TNFA mRNA levels (inflammatory response) [8]: reduced substantially the inflammatory response; IC50 (uM) values ([2]; RT-112 cell growth): ns; IC50 (uM) values ([4]; UMUC9 cell growth): ns

— patent US11952362B2, “Compositions and methods for treating epigenetic disease” (The Regents of the University of California, priority 2018, dated 2024)
